Source: patent US20110124614A1, “Methods And Compositions For The Treatment of Autoimmune Disorders” (priority 2008, published 2011)
Entries after “also recorded” stand apart in the source; their conditions may differ. Marks after values point to notes of the source that are not given here.

What was measured:
Assay type in all cases: in vivo, mouse
[1] = test system: EAE in wild-type B6 mice; assay: EAE clinical scoring, G-1 vs E2 pellets at different doses, wild-type B6 mice (Example III); conditions: for CDI / Daily / Mortality / Onset / Peak / Incidence: 34 days
[2] = test system: EAE in wild-type B6 mice; assay: EAE clinical scoring, daily s.c. injection of G-1 or E2, wild-type B6 mice
[3] = test system: EAE in GPR30KO mice; assay: EAE clinical scoring, G-1 or E2 pellets, GPR30KO mice (Example IV); conditions: for CDI / Daily / Mortality / Onset / Peak / Incidence: GPR30KO
[4] = test system: CNS infiltration, demyelination and axonal damage in spinal cord of WT EAE mice; assay: Spinal cord histology (H&E, LFB-PAS, SMI312, SMI32), WT EAE mice; conditions: for immune cell infiltration and demyelination in the CNS (H&E, LFB-PAS): WT mice of FIG. 2A experiment, FIG. 4 upper panels; for axons in the spinal cords (SMI312 staining) / axonal damage in spinal cord sections / SMI32 staining in white matter of spinal cords (ongoing axonal damage): WT mice; for axons in the spinal cords (SMI312 staining): FIG. 4 lower left panel; for axonal damage in spinal cord sections: FIG. 4 lower panels; for SMI32 staining in white matter of spinal cords (ongoing axonal damage): FIG. 4 lower right panel
From the text: Spinal cords were dissected out for histology. Intact spinal columns were removed and dissected after fixation in 4% paraformaldehyde, dehydrated and embedding in paraffin. To examine neuroinflammation, the sections were stained with hematoxylin and eosin (H&E). To examine demyelination, the sections were stained with Luxon fast blue plus periodic acid Schiff (LFB-PAS). The mice from the clinical experiment shown in FIG. 2A were euthanized at the end of the experiment and spinal cords were dissected out for histology. Intact spinal cords were removed and dissected after fixation in 4% paraformaldehyde, dehydrated and embedding in paraffin. To examine neuroinflammation, the sections were stained with hematoxylin and eosin (H&E). To examine demyelination, the sections were stained with Luxon fast blue plus periodic acid Schiff (LFB-PAS). To visualize axonal damage, spinal cords were fixed in 4% paraformaldehyde (maass/volume in PBS, pH 7.4) at 4° C. for at least 48 h. The spinal cords were dissected out from the columns, cut into sections 1-2 mm in length from the sampled thoracic or […] cords, dehydrated and embedded in paraffin blocks. Then, 10 μm thick sections were cut from paraffin blocks and mounted onto pre-cleaned microscope slides. The sections were dewaxed and rehydrated sequentially by xylene (2 min), gradient ethanol (100%, 95%, 85%, 2 min each) and PBS (5 min) and then cooked (120° C.) in antigen unmasking agent Trilogy® (Cell Marque, Hot Springs, Ark.) for 10 min in a pressure steamer. […] The slides were counterstained with hematoxylin for 30-60 s to visualize nuclei, washed with tap water, dehydrated, and mounted with Cytoseal™ XYL mounting medium (Richard-Allan Scientific, Kalamazoo, Mich.). The sections were analyzed by light microscopy after staining and recorded with a digital camera.

[5] = test system: splenocytes and lymph node cells of WT EAE mice; assay: Ex vivo T cell proliferation to mMOG-35-55, WT mice; conditions: for ex vivo T cell proliferation responses to mMog-35-55 peptide: G-1 and E2 implanted WT mice, FIG. 2C
Description: (§1) Splenocytes and lymph node cells were harvested ex-vivo from G-1 and E2 implanted mice and cultured in a 96-well flat bottom tissue culture plate at 4×10^5 cells/well in stimulation medium in the presence of APC, irradiated (2500 rad) syngenic thymocytes at a ration of 1:10 (T:APCs) wither with or without mMog 35-55 peptide at varying concentrations. The cells were incubated for 3 days at 37° C. in 7% CO2 and pulsed with 0.5 μCi of [^3H] thymidine (Perkin-Elmer, Boston, Mass.) for the final 18 h of incubation. The cells were harvested onto glass fiber filters, and incorporated radioactivity was measured by a liquid scintillation counter. The cpm values (mean±SD) were calculated from triplicate wells. Stimulation index (SI) was calculated by dividing the experimental cpm by the control cpm.

[6] = test system: T cells of GPR30KO EAE mice; assay: Ex vivo T cell proliferation to mMOG-35-55, GPR30KO mice; conditions: for T cell proliferation to mMog-35-55: Example IV
Description: as §1

[7] = test system: PD-1 expression in CD4^+FoxP3^+ T cells; assay: PD-1 expression in CD4+FoxP3+ Treg cells by flow cytometry, WT mice (Example VI); conditions: for staining intensity of PD-1 in CD4^+FoxP3^+ cells: spleen of treated WT mice; for staining intensity of PD-1 in CD4^+FoxP3^+ cells / conversion of CD4^+FoxP3^+PD-1^− cells to PD-1^+ cells: FIG. 5B
Description: Splenocytes or lymph node cells were harvested from placebo-, E2- or G-1 treated mice after EAE induction as shown in FIG. 2A and stained for CD4, FoxP3 and PD-1. The expression levels of Pd-1 were analyzed by gating on CD4^+FoxP3^+ cells from placebo-, E2, or G-1 treated WT mice. For membrane staining, 1 million cells were stained at 4° C. in the dark with appropriate Ab dilutions in staining buffer (PBS containing 0.5% BSA and 0.02% sodium azide), Intracellular staining for FoxP3 was performed following the protocol recommended by eBioscience. Briefly, 4 million cells were surface stained following standard procedures. After washing, the cells were fixed overnight and washed twice with 0.5 ml of permeabilization buffer. The cells were co-stained for 15 min with FcBlock (Becton Dickinson, Franklin Lake., NJ) and IgG PerCp (eBioscience, San Diego, Calif.) followed 30 min later with fluorescent-labeled antibodies to FoxP3 (eBioscience, San Diego, Calif.) or isotype control. The cells were then washed twice with 2 ml of permeabilization buffer and once with 1 ml of staining buffer, and re-suspended in staining buffer. Flow cytometry data were collected on LSRII and FACSCalibur flow cytometers (BD Bioscience, Franklin Lakes, N.J.), and analyzed using FlowJo software (Tree Star, Ashland, Oreg.). Data represent 50,000-100,000 events unless otherwise noted. […] The histogram overlay compares the MFI of PD-1 in CD4^+FoxP3^+ T cells from different treatment groups. The bar charts show the average percentages of PD-1^+ CD4^+FoxP3^+ T cells and the average MFI of PD-1 in CD4^+FoxP3^+ T cells from all mice in each grip[/*P<0.05 or **P<0.01 compared to placebo control.

[8] = test system: PD-L1 and PD-L2 expression; assay: PD-L1 and PD-L2 expression on APCs and T cells by flow cytometry (Example VIII); conditions: treated WT EAE mice, FIG. 5C
[9] = E2 injection, 1 μg/mouse/day s.c., 20 days
[10] = 2.5 mg/60 day E2 pellet, 29 days
[11] = G-1 injection, 20 μg/mouse/day s.c., 20 days
[12] = 1.8 mg/40 day G-1 pellet, 29 days

C[C@]12CC[C@@H]3c4ccc(O)cc4CC[C@H]3[C@@H]1CC[C@@H]2O [E2, 17β estradiol]
CDI ([1]; 0.025 mg E2 pellet): 37.0 ± 21.6
Daily ([1]; 0.025 mg E2 pellet): 1.7 ± 1.0
Mortality ([1]; 0.025 mg E2 pellet): 0/5
Onset ([1]; 0.025 mg E2 pellet): 14.8 ± 0.5
Peak ([1]; 0.025 mg E2 pellet): 2.8 ± 1.6
Incidence ([1]; 0.025 mg/60 day release E2 pellet): 4/5
CDI ([1]; 0.1 mg E2 pellet): 9.1 ± 14.8
Daily ([1]; 0.1 mg E2 pellet): 0.3 ± 0.6
Mortality ([1]; 0.1 mg E2 pellet): 0/10
Onset ([1]; 0.1 mg E2 pellet): 21.0 ± 6.1
Peak ([1]; 0.1 mg E2 pellet): 0.8 ± 1.2
Incidence ([1]; 0.1 mg/60 day release E2 pellet): 3/10**
CDI ([1]; 2.5 mg E2 pellet): 0**
Daily ([1]; 2.5 mg E2 pellet): 0**
Mortality ([1]; 2.5 mg E2 pellet): 0/7
Peak ([1]; 2.5 mg E2 pellet): 0**
Incidence ([1]; 2.5 mg/60 day release E2 pellet): 0/7**
protection from clinical EAE (in words) ([1]; 2.5 mg/60 day release E2 pellets): completely protected
protection against EAE (in words) ([2]; E2 1 μg/mouse/day s.c. injections): partially protective
CDI [2, 9]: 10.5 ± 13.9
Daily [2, 9]: 2.3 ± 0.3
Incidence [2, 9]: 3/8*
Mortality [2, 9]: 1/8
Onset [2, 9]: 15.3 ± 1.5
Peak [2, 9]: 2.3 ± 2.9
protective effect against EAE (in words) ([3]; E2 2.5 mg/60 day pellet, GPR30KO mice): only partially offset by the absence of GPR30
CDI [3, 10]: 17.2 ± 17.4
Daily [3, 10]: 3.7 ± 1.3
Mortality [3, 10]: 0/7
Onset [3, 10]: 18.0 ± 1.4
Peak [3, 10]: 2.5 ± 2.3
Incidence ([3]; 2.5 mg/60 day release E2 pellet, 29 days): 4/7
pathological signs of EAE in CNS (immune cell infiltration and demyelination) ([4]; E2-treated WT mice, Example II, FIG. 1B): no pathological signs of EAE
immune cell infiltration and demyelination in the CNS (H&E, LFB-PAS) [4]: markedly ameliorated
axons in the spinal cords (SMI312 staining) [4]: well preserved
axonal damage in spinal cord sections [4]: reduced the level of axonal damage
SMI32 staining in white matter of spinal cords (ongoing axonal damage) [4]: much less SMI32 staining
T-cell responses to MOG peptide ([5]; E2 treatment, WT mice, FIG. 1C): similarly reduced
ex vivo T cell proliferation responses to mMog-35-55 peptide [5]: neither G-1 nor E2 treatment significantly altered
T-cell responses to MOG peptide ([6]; E2 treatment, FIG. 1C): similarly reduced
T cell proliferation to mMog-35-55 [6]: Neither G-1 nor E2 affected
staining intensity of PD-1 in CD4^+FoxP3^+ cells [7]: strongly enhanced
conversion of CD4^+FoxP3^+PD-1^− cells to PD-1^+ cells ([7]; treated WT mice): converted a majority
PD-L1 expression on B cells and macrophages [8]: upregulated
expression of PD-L2 [8]: essentially no effect

CC(=O)c1ccc2c(c1)C1C=CCC1C(c1cc3c(cc1Br)OCO3)N2 (stereo not drawn) [G-1]
CDI ([1]; 0.01 mg G-1 pellet): 43.8 ± 39.9
Daily ([1]; 0.01 mg G-1 pellet): 1.8 ± 1.6
Mortality ([1]; 0.01 mg G-1 pellet): 0/6
Onset ([1]; 0.01 mg G-1 pellet): 13.6 ± 1.6
Peak ([1]; 0.01 mg G-1 pellet): 3.1 ± 1.7
Incidence ([1]; 0.01 mg/40 day release G-1 pellet): 5/6
CDI ([1]; 0.1 mg G-1 pellet): 18.8 ± 28.3
Daily ([1]; 0.1 mg G-1 pellet): 0.75 ± 1.3
Mortality ([1]; 0.1 mg G-1 pellet): 0/6
Onset ([1]; 0.1 mg G-1 pellet): 16.7 ± 2.3
Peak ([1]; 0.1 mg G-1 pellet): 1.5 ± 1.6
Incidence ([1]; 0.1 mg/40 day release G-1 pellet): 3/6
CDI ([1]; 1.8 mg G-1 pellet): 0**
Daily ([1]; 1.8 mg G-1 pellet): 0**
Mortality ([1]; 1.8 mg G-1 pellet): 0/7
Peak ([1]; 1.8 mg G-1 pellet): 0**
Incidence ([1]; 1.8 mg/40 day release G-1 pellet one week before immunization): 0/7**
protection from clinical EAE (in words) ([1]; 1.8 mg/40 day release G-1 pellets): completely protected
clinical EAE (in words), dose dependence ([1]; G-1 pellets 1.8, 0.1 or 0.01 mg/40 day release): delayed and ameliorated EAE in a dose-dependent manner
protection from clinical EAE compared with E2 ([1]; lower doses of G-1 pellets): less effective than E2
protection against EAE (in words) ([2]; G-1 20 μg/mouse/day s.c. injections): partially protective
CDI [2, 11]: 19.7 ± 11.3
Daily [2, 11]: 2.7 ± 1.3
Mortality [2, 11]: 1/8
Onset [2, 11]: 13.7 ± 1.3
Peak [2, 11]: 3.7 ± 1.6
Incidence ([2]; G-1 injection, 20 μg/mouse/day s.c., euthanized 20 days after immunization): 6/8
protection against EAE (in words) ([3]; G-1 1.8 mg/40 day pellet, GPR30KO mice): completely ineffective
CDI [3, 12]: 59.9 ± 13.4
Daily [3, 12]: 3.0 ± 0.7
Mortality [3, 12]: 0/8
Onset [3, 12]: 13.8 ± 1.2
Peak [3, 12]: 4.5 ± 0.7
Incidence ([3]; 1.8 mg/40 day release G-1 pellet, concluded 29 days after immunization): 8/8
immune cell infiltration and demyelination in the CNS (H&E, LFB-PAS) [4]: markedly ameliorated; also recorded: reduced
axons in the spinal cords (SMI312 staining) [4]: well preserved
axonal damage in spinal cord sections [4]: reduced the level of axonal damage
SMI32 staining in white matter of spinal cords (ongoing axonal damage) [4]: much less SMI32 staining
ex vivo T cell proliferation responses to mMog-35-55 peptide [5]: neither G-1 nor E2 treatment significantly altered
T cell proliferation to mMog-35-55 [6]: Neither G-1 nor E2 affected
staining intensity of PD-1 in CD4^+FoxP3^+ cells [7]: strongly enhanced
boosting PD-1 expression in CD4^+FoxP3^+ cells, compared with E2 ([7]; treated WT mice): even more potent than E2
conversion of CD4^+FoxP3^+PD-1^− cells to PD-1^+ cells ([7]; treated WT mice): converted a majority
PD-L1 expression on B cells and macrophages [8]: upregulated
expression of PD-L2 [8]: essentially no effect
